Broadly, the melting point is the temperature of the solid-liquid transition.

The values below come from a melting point compilation (Tetko et al.; mined from patent text by program, amines drawn as free bases though some values may be those of a salt).

In the case of `COc1ccc(CNc2cc(OC)c(OC)c(OC)c2)cc1`, the melting point was 77 to 78 °C.

Consider `O=C(O)Cc1cnn(-c2ccc(Cl)cc2)c1-c1ccc(Cl)cc1`, for which the melting point was in the range of 195 to 196 °C.

In the case of `Nc1nc2cc(Cl)c(Cl)c(Cl)c2[nH]1`, the melting point was in the range of 255 to 258 °C.

The molecule `O=C(SCC1C(=O)OCC1c1ccc(Cl)cc1)c1ccccc1` (centres undefined) gave a melting point of 99 to 101 °C.

For the molecule `CCOC1CC(O)C(=O)N1S(=O)(=O)c1ccccc1` (centres undefined), the melting point was 108 to 116 °C.

In turn, `Cc1[nH]c(=O)n(-c2cc(OC(C)C)c(Cl)cc2F)c(=O)c1F` registered a melting point of 162 to 164 °C.

For `CC1CCC(=O)N1c1ccnc(NC(=O)NCc2ccccn2)c1` (centres undefined), the melting point is 155 to 160 °C.

On to `CCC1(O)CC(=O)OCc2c1cc[nH]c2=O` (centres undefined), for which the melting point lay in the range of 118 to 119 °C.

`CC(=O)Nc1ccc2cccc(Oc3cc(N4CCN([C@H](C)c5ccc(F)cc5)CC4)ncn3)c2n1` displayed a melting point of 134 °C.

`CCC(=O)NCc1cccc(-c2nc(=O)c3ccccc3s2)n1` yielded a melting point of 199 to 200 °C.

For `CN(C)C(=O)CCC(=O)c1ccccc1`, the melting point is 56 to 58 °C.

`Nc1ccc(C(=O)NNCCC(=O)OCc2ccccc2)cc1` yielded a melting point of 96 to 97 °C.

On to `O=C(N[C@H]1CC[C@H](CCN2CCC(c3cccc4c3CCO4)CC2)CC1)c1ccc(-c2ccccc2)cc1`, for which the melting point amounted to 241 °C.

The molecule `CNc1ccc(CO)cc1[N+](=O)[O-]` displayed a melting point of 126 to 127 °C.

For `O=[N+]([O-])c1ccc2c3c([nH]c2c1)CCCCCC3`, the melting point lay within 119 to 120 °C.

`Cc1nc(-c2ccc(NCC(=O)O)cc2)no1` returned a melting point of 178 to 181 °C.

`O=C(O)C(Sc1nc2ccccc2s1)c1ccccc1` (centres undefined) showed a melting point of 152 to 154 °C.

With `N#Cc1cc(C2=Nc3cc(O)c(-c4ccc(F)cc4)cc3NC(=O)C2)ccn1`, the melting point is 164 °C.

`COc1cc(-c2ncc(C(F)(F)F)cc2Cl)c(F)cc1Cl` had a melting point of 105 to 106 °C.

`CCCCC(=O)C(=Cc1ccc(Cl)cc1)n1cncn1` yielded a melting point of 117 to 120 °C.

`COc1cc(C)c(C=CC=CC=C(C)C(=O)O)c(C)c1C` yielded a melting point of 179 to 180 °C.

`CCNCC1CCN(c2c(F)cc3c(=O)c(C(=O)O)cn(-c4ccc(F)cc4)c3c2F)C1` (centres undefined): the melting point was in the range of 249 to 251 °C.

For `CCCCCCCCC(SCCCCCC)C(=O)Nc1c(SC)ccc2ncc(C)cc12` (centres undefined), the melting point lay within 137 to 138 °C.

With `CC(C)c1c(Cl)sc2[nH]c(=O)c(=O)[nH]c12`, the melting point is greater than 250 °C.

In turn, `N#CC(C#N)CC(CC(F)(F)C(F)(F)C(F)(F)C(F)F)S(=O)(=O)C(F)(F)F` (centres undefined) displayed a melting point of 144 to 146 °C.

`O=C(OC1CCCCC1=O)c1cccc2ccccc12` (centres undefined) had a melting point of 94 to 95 °C.

Consider `Cc1cc2c(cc1N1CCc3ccccc31)OC(=O)C2C` (centres undefined), for which the melting point was 176 to 178 °C.

In turn, `O=C(O)Cn1ccc(=O)n(Cc2cccc([N+](=O)[O-])c2)c1=O` returned a melting point of 161 to 162 °C.

Turning to `CCc1nn2c(N)cc(Cl)nc2c1S(=O)(=O)c1ccccc1`, the melting point is greater than 220 °C.

In turn, `CC(C)N(CCN1C(=O)/C(=N/NC(N)=O)c2ccccc21)Cc1ccccc1` displayed a melting point of 193 to 194 °C.

`COc1ccc(-c2cncc(OC3SCC(OC(C)=O)C(OC(C)=O)C3OC(C)=O)c2)c(Cl)c1` (centres undefined) showed a melting point of 126 °C.

As for `N#Cc1cc(C(=O)NNC(=O)c2occc2-c2cccc(Oc3ccccc3)c2)ccc1O`, the melting point was in the range of 227 to 228 °C.

As for `COc1ccc(S(=O)(=O)N2C(=O)C(c3cc(C)ccc3OC)(N3C[C@H](O)C[C@H]3C(=O)N(C)C)c3cc(Cl)ccc32)c(OC(F)(F)F)c1` (some centres undefined), the melting point lay in the range of 192 to 193 °C.

`Fc1ccc2c(c1)CC[C@H](CNCCNc1ncccn1)O2` returned a melting point of 103 °C.

As to `N#CC(C(=O)NCc1ccccc1)C(=O)c1nn(-c2ccc(F)cc2)c2c1CSc1ccc(Cl)cc1-2` (centres undefined), the melting point fell in the range of 216 to 218 °C.

Molecule `CC(O)Cn1nc(-c2cnc3[nH]cc(C(=O)NC(C)C(=O)N4CC(C#N)C4)c3n2)c2ccc(Cl)cc21` (centres undefined) showed a melting point of 160 to 165 °C.

Take `COc1ccc(Br)cc1-c1cc(-c2ccc(Br)cc2)on1`: the melting point was in the range of 127 to 159 °C.

Molecule `CC(C)(C)OC(=O)Nc1cc(Br)cc(C(F)(F)F)c1` displayed a melting point of 113 to 115 °C.

With `COC(=O)c1ccc(Cl)cc1OS(C)(=O)=O`, the melting point was 82.5 to 84.5 °C.

Consider `O=[N+]([O-])C1=C2N(Cc3ccc(Cl)nc3)CCN2C2CCC1O2` (centres undefined), for which the melting point lay in the range of 149 to 150 °C.

Consider `CON=C(C(=O)OC)c1csc(N)n1`, for which the melting point came out at 165 °C.

Turning to `COc1nc(OC)c(C=O)c(N(C)C)n1`, the melting point was found to be 150 °C.

The molecule `Cc1nc2cc3c(cc2c(=O)n1COC(=O)C(C)(C)C)CCC3` registered a melting point of 128 °C.

`Cn1nc(Oc2ccc(Cl)c(O)c2)c(Cl)c1C(F)(F)F` yielded a melting point of 106 to 108 °C.

The molecule `O=C(O)CCc1oc(Sc2ccccc2)nc1-c1ccc(Cl)cc1` yielded a melting point of 156 to 157 °C.

`O=C(O)c1cc(=O)c2cccc(COc3ccc(OCc4ccc5ccccc5n4)cc3)c2o1` came in with a melting point of 221 to 224 °C.

In turn, `COc1ccc(CN2CCC(=C3c4ccc(Cl)cc4CCc4cccnc43)CC2)cn1` gave a melting point of 60.2 to 64.1 °C.

`O=C(OCCN1CCOCC1)c1ccc(-c2n[nH]c3c2Cc2ccccc2-3)cc1`: the melting point was 168 to 172 °C.

On to `COC(=O)CN(CCNC(=O)OC(C)(C)C)C(=O)Cc1cc2c(C)ccnc2[nH]c1=O`, for which the melting point fell in the range of 175 to 177 °C.

Molecule `CCCCCCCCCCCc1ccc(CCCC(N)(CO)CCO)cc1` (centres undefined) displayed a melting point of 73 to 76 °C.

Molecule `CC(=O)c1c(-c2cccc([N+](=O)[O-])c2)cc(C(=O)NCCN2CCOCC2)nc1C` yielded a melting point of 107 to 110 °C.

With `CCOC(=O)c1cc2cccc(NS(=O)(=O)c3ccsc3C(=O)OC)c2[nH]1`, the melting point lay in the range of 173 to 174 °C.

`O=C1NC(=O)C(Cc2ccc(OCCON=Cc3ccc4ccccc4n3)cc2)S1` (centres undefined) registered a melting point of 164 to 166 °C.

Regarding `Cn1ccc(=O)c2cc(F)ccc21`, the melting point was 88 to 89 °C.

Molecule `CCc1cc(NC(=O)c2nnn(Cc3ccccc3)n2)c(O)c(C(C)=O)c1` gave a melting point of 159 to 161 °C.

The molecule `N=C(NNC=O)c1ccc(-c2ccc(Cl)cc2)o1` yielded a melting point of 155 to 157 °C.

With `CC(C)(c1ccc(Oc2cccc(N)c2)cc1)c1cccc(C(C)(C)c2ccc(Oc3cccc(N)c3)cc2)c1`, the melting point lay within 94 to 96 °C.

Molecule `CCCc1c(OCC(O)CSc2nc3ccc(C(=O)O)cc3[nH]2)ccc(C(C)=O)c1O` (centres undefined) returned a melting point of 133 to 135 °C.

`CCCOc1nc2cc(Cn3ccnc3)ccc2nc1C`: the melting point was 85.5 °C.

On to `COc1ccc(C2=NN(C3CCN(C(=O)CN4C(=O)Cc5ccccc54)CC3)C(=O)C2(C)C)cc1OC`, for which the melting point came out at 178 °C.

For `CCOC(=O)C(=CNc1coc2ccc(Cl)cc2c1=O)C(=O)OCC`, the melting point was in the range of 143 to 145 °C.

With `Cc1cc(-c2nc3cccnn3c2-c2ccnc(NC(=O)NC3CCCCC3)c2)ccc1F`, the melting point was in the range of 229 to 230 °C.

With `CC(=O)Nc1c(C(=O)c2cccc(O)c2)[nH]c2cc(Cl)ccc12`, the melting point lay in the range of 130 to 145 °C.

With `COc1ccc(C)c(N2CCN(C(=O)N(C)c3cc(C)c(C)nc3OC)CC2)c1`, the melting point lay within 91 to 93 °C.

Turning to `CCOC(=O)CC(=O)N=C(SC)N(C)N=Cc1ccccc1`, the melting point lay in the range of 74 to 75 °C.

As for `COc1ccc(N2CCN(c3cccnn3)CC2)cc1`, the melting point was 133 °C.

With `COC(=O)CCCNS(=O)(=O)c1ccc2ccccc2c1`, the melting point is 123 to 125 °C.

In the case of `COc1ccc(C(=O)c2ccccc2C(F)(F)F)c(O)c1Cl`, the melting point fell in the range of 101 to 102 °C.

In turn, `CCOC(=O)C(=CNNc1c(Cl)cc(Cl)cc1Cl)C(=O)OCC` displayed a melting point of 92 °C.

The molecule `CC(C)N1CCC(CNc2ccc(Cl)cc2C(=O)Nc2ccc(F)cn2)CC1` yielded a melting point of 72 to 74 °C.

Consider `CC(C)OC(=O)c1cc(F)c(F)c(-c2ccc(Cl)cc2)n1`, for which the melting point lay in the range of 73 to 74 °C.

In turn, `CN(C)C(=O)C1Oc2ccc([N+](=O)[O-])cc2O1` (centres undefined) registered a melting point of 109 °C.

Turning to `O=C(O)CCCN1CCc2ccc(S(=O)(=O)Nc3ccc(Cl)cc3)cc2C1`, the melting point amounted to 210 °C.

For the molecule `CC(CCCC(C)(C)OC1CCCCO1)C1CCC2C3CC=C4CC(O)CC(O)C4(C)C3CCC12C` (centres undefined), the melting point was 130 to 132 °C.

The molecule `CC(=O)Nc1ccnn1-c1c(F)c(F)c(C(F)(F)F)c(F)c1F` came in with a melting point of 102 to 104 °C.

`CCCCS(=O)c1nc[nH]n1` (centres undefined): the melting point lay within 82 to 83 °C.

As for `CCOC(=NC(=O)NC)N1Cc2ccccc2-c2ccccc2C1`, the melting point fell in the range of 137 to 139 °C.

As to `CCOC(=O)C1=C(C)NC(C#N)=C(C(=O)OCC)C1c1ccco1` (centres undefined), the melting point lay within 139 to 141 °C.

Consider `CCCCNC(=O)c1ccc(Cl)c(-n2nc(CCCC)n(Cc3ccc(-c4ccccc4S(=O)(=O)NC(=O)c4ccccc4Cl)cc3)c2=O)c1`, for which the melting point was greater than 155 °C.

As for `CON=CNC(=O)c1ccc(Br)cc1C`, the melting point is 119 to 122 °C.

`CCCCCCCC(=O)c1ccc(CCI)cc1` showed a melting point of 36.5 °C.

`CCOC(Cc1ccc(OCCn2c(=O)sc3cc(C(=O)c4ccccc4)ccc32)cc1)C(=O)OC` (centres undefined): the melting point lay within 118 to 119 °C.

Molecule `CC(C)Cc1cc(OCc2ccccc2)c2c(c1)OC(C)(C)CC2C(=O)O` (centres undefined) gave a melting point of 152 to 153 °C.

Take `N#CC(=CNc1ccccc1)Cc1ccc2c(c1)OCO2`: the melting point lay within 150 to 151 °C.

In turn, `CCCCC(Cc1ccc(OCCNC(=O)c2ccc(Oc3ccccc3)nc2)cc1)C(=O)O` (centres undefined) yielded a melting point of 124 to 125 °C.

Consider `COc1ccc2[nH]c(S(=O)Cc3nccc(N(C)C)c3Cl)nc2c1` (centres undefined), for which the melting point fell in the range of 113 to 114 °C.

Consider `Cc1nc(N2CCN(Cc3ccc(F)c(F)c3)C2=O)sc1C(N)=O`, for which the melting point fell in the range of 221 to 223 °C.

The molecule `CN(C)CCCOc1ccc(-c2nn(CC(=O)OCc3ccccc3)c3ncccc23)cc1` showed a melting point of 90 to 92 °C.

`CCOC(=O)c1[nH]c(C)c(CC)c1CC` came in with a melting point of 76 to 77 °C.
